Experiments:
rats = assay: Acute toxicity with intravenous administration, rats; assay type: in vivo, S.D. strain rats; conditions: 14 days
Method: (§1) In this Example, the acute toxicity with intravenous administration of the non-radioactive labeling composition to rats or mice was evaluated. Namely, sterilized, pyrogen-free and oxygen-free water (1.0 ml) was added to a vial containing "FDSn-RBC" to make a stannous chloride solution (20 μmol/ml, […]). The resultant solution was intravenously administered to male and female ICR strain mice and S.D. strain rats. After 14 days, the accumulative death percentage was determined, and the lethal dose 50 (LD50) was calculated by the Litchfield-Wilcoxon's method.
The dose of the non-radioactive labeling composition to human beings may be 9.48 μg/kg (with the assumption that a total amount of one vial of FDSn-COL is administered to a person of 60 kilograms in bodyweight) as stannous chloride at the maximum in case of using for preparation of ^99m Tc-labeled tin colloid, and 31.95 μg/kg (corresponding to 20 μg/kg of stannous ion) in case of using for labeling of red blood cells in a human body. When these doses are compared with the LD50 values of female rats which are considered to be the most sensitive among the tested animals, said dose is about 1/1790 that of the LD50 value in case of preparation of ^99m Tc-labeled tin colloid and about 1/530 that of the LD50 value in case of labeling of red blood cells in a human being.

mice = assay: Acute toxicity with intravenous administration, mice; assay type: in vivo, ICR strain mice; conditions: 14 days
Method: as §1

Molecule [Cl][Sn][Cl] [stannous chloride] has an LD50 (rats; female rats) of 17 ± 2 mg/kg, an LD50 (rats; male rats) of 18 ± 3 mg/kg and an LD50 (mice; female mice) of 28 ± 3 mg/kg. It also gave an LD50 (mice; male mice) of 33 ± 3 mg/kg.

Reference: patent publication US5096693A, “Stable stannous chloride composition for labeling with radioactive technetium” (Nihon Medi-Physics Co., Ltd., priority 1984, dated 1992)
